# Assay results from patent US8859543B2, “Imidazo[1,2-a]pyrazine derivatives and their use for the prevention or treatment of neurological, psychiatric and metabolic disorders and diseases” (Janssen Pharmaceutica NV, priority 2010, dated 2014).
# Like-named read-outs stand apart in the source and are kept apart here.
# Key:
# [1] = biological target: T1, Rat recombinant PDE10A (rPDE10A2) (Rattus norvegicus, UniProt Q9QYJ6); assay: In vitro assay PDE10A (SPA, 3H-cAMP); assay type: biochemical; conditions: pIC50 corresponds to the -log IC50 expressed in mol/L; read-out: PDE10A2 pIC50 (converted)
# T1 construct: made in house; host or cells: Sf9 insect cells, baculovirus
# T1 sequence (Q9QYJ6 1-794): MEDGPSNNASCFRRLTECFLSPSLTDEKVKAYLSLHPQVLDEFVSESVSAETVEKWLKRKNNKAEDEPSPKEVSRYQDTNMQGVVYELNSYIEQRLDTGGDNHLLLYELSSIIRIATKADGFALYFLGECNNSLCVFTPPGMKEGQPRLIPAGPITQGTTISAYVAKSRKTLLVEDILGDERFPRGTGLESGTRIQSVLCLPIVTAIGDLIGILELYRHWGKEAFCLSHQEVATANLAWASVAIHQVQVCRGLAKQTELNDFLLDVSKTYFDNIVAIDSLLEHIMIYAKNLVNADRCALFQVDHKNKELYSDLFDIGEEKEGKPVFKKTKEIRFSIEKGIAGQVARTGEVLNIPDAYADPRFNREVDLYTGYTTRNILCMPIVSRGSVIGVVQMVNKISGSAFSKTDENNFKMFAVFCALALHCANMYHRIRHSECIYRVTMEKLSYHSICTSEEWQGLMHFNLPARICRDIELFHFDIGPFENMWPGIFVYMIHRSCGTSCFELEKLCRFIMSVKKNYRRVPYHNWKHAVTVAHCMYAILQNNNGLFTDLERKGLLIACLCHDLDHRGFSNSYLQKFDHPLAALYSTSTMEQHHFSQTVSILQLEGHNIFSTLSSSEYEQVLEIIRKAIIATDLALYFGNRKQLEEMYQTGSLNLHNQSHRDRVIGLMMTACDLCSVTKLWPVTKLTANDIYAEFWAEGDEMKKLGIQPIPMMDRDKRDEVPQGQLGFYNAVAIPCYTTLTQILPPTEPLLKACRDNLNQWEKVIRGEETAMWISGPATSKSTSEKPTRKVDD
# Description: Rat recombinant PDE10A (rPDE10A2) was expressed in Sf9 cells using a recombinant rPDE10A baculovirus construct. Cells were harvested after 48 h of infection and the rPDE10A protein was purified by metal chelate chromatography on Ni-sepharose 6FF. Tested compounds were dissolved and diluted in 100% DMSO to a concentration 100 fold of the final concentration in the assay. Compound dilutions (0.4 μl) were added in 384 well plates to 20 μl of incubation buffer (50 mM Tris pH 7.8, 8.3 mM MgCl2, 1.7 mM EGTA). 10 μl of rPDE10A enzyme in incubation buffer was added and the reaction was started by addition of 10 μl substrate to a final concentration of 60 nM cAMP and 0.008 μCi ^3H-cAMP. The reaction was incubated for 60 min. at RT. […] After sedimentation of the beads during 30 min. the radioactivity was measured in a Perkin Elmer Topcount scintillation counter and results were expressed as cpm. For blank values the enzyme was omitted from the reaction and replaced by incubation buffer. Control values were obtained by addition of a final concentration of 1% DMSO instead of compound. The same assay principle is applied for the measurement of the affinity of the compound for other members of the PDE family with appropriate modifications in incubation buffer, substrate concentration, incubation time and stop solution.
# [2] = system: apomorphine-induced stereotypy; assay: Apomorphine-induced stereotypy in rats (APO); assay type: in vivo; conditions: Rattus norvegicus
# Description: Apomorphine-Induced Stereotypy in Rats (APO)
# Apomorphine (1.0 mg/kg, i.v.)-induced stereotypy (compulsive sniffing, licking, chewing) was scored every 5 min. over the first hour after injection of apomorphine, following a 1 hour interval pre-treatment with the test compound. The score system was: (3) pronounced, (2) moderate, (1) slight, and (O) absent.
# [3] = not active at 2.5 or at 10 mg/kg, not further tested, read-out: APO ED50 (not active at threshold dose)
Compound,IC50 [1] [nM],other results
"COCCn1cc(-c2c(C)nc3c(N4CCOCC4)nc(C4CC4)cn23)cn1 [compound 37, 6-Cyclopropyl-3-[1-(2-methoxy-ethyl)-1H-pyrazol-4-yl]-2-methyl-8-morpholin-4-yl-imidazo[1,2-a]pyrazine]",490,–
COCCn1cc(-c2c(OC)nc3c(N4CCCC4)nccn23)cn1 [compound 131],537,–
"Cc1nc2c(N3CCOCC3)nccn2c1-c1cnn(C2CCOC2)c1 (single isomer, unassigned) [compound 109]",178,–
Cc1nc2c(N3CCOCC3)nccn2c1-c1ccc(CC(C)C)nc1 [compound 106],–,"ED50 [2, 3]: > 2.5 mg/kg"
Cc1nc2c(N3CCOCC3)nccn2c1-c1ccc(NC(C)C)nc1 [compound 103],–,"ED50 [2, 3]: > 2.5 mg/kg"
CC(=O)Cn1cc(-c2c(C)nc3c(N4CCOCC4)nccn23)cn1 [compound 117],309,–
"Cc1nc2c(N3CCOCC3)nccn2c1-c1cnn(CC2CC2(F)F)c1 (single isomer, unassigned) [compound 47]",28.2,–
CCOCCn1cc(-c2c(C)nc3c(-c4ccncc4)nccn23)cn1 [compound 128],468,–
Cc1nc2c(N3CCOCC3)nccn2c1-c1ccc(N2CCCC2)nc1 [compound 123],–,"ED50 [2, 3]: > 2.5 mg/kg"
"Cc1nc2c(N3CCOCC3)nccn2c1-c1cnn(C2CCOC2)c1 (single isomer, unassigned) [compound 88]",132,–
Cc1nc2c(N3CCOCC3)nccn2c1-c1ccc(CCN2CCCC2)nc1 [compound 140],871,–
"COC(Cn1cc(-c2c(C)nc3c(N4CCOCC4)nccn23)cn1)C(C)C (single isomer, unassigned) [compound 54]",56.2,–
"COCCCc1ccc(-c2c(C)nc3c(N4CCOCC4)nccn23)cn1 [compound 6, 3-[6-(3-Methoxy-propyl)-pyridin-3-yl]-2-methyl-8-morpholin-4-yl-imidazo[1,2-a]pyrazine]",–,ED50 ([2]; read-out: APO ED50): ≤ 2.5 mg/kg
Cc1nc2c(N3CCOCC3)nccn2c1-c1cnn(CC(=O)C2CC2)c1 [compound 98],145,–
"Cc1nc2c(-c3ccncc3)nccn2c1-c1cnn(CC2CCCCO2)c1 (single isomer, unassigned) [compound 92]",135,–
"COC(C)(C)Cc1ccc(-c2c(C)nc3c(N4CCOCC4)nccn23)cn1 [compound 7, 3-[6-(2-Methoxy-2-methyl-propyl)-pyridin-3-yl]-2-methyl-8-morpholin-4-yl-imidazo[1,2-a]pyrazine]",–,ED50 ([2]; read-out: APO ED50): 1.2 mg/kg
"COc1ncc(-c2c(C)nc3c(N4CCOCC4)nccn23)cn1 [compound 32, 3-(2-Methoxy-pyrimidin-5-yl)-2-methyl-8-morpholin-4-yl-imidazo[1,2-a]pyrazine]",479,–
Cc1nc2c(N3CCOCC3)nccn2c1-c1cnn(CC2CCCCO2)c1 (centres unmarked) [compound 73],95.5,–
"Cc1nc2c(N3CCOCC3)nccn2c1-c1cc[nH]c1 [compound 43, 2-Methyl-8-morpholin-4-yl-3-(1H-pyrrol-3-yl)-imidazo[1,2-a]pyrazine]",871,–
Cc1nc2c(N3CCOCC3)nccn2c1-c1cnc(N2CCOCC2)nc1 [compound 85],120,–
Cc1cc(-c2c(C)nc3c(N4CCOCC4)nccn23)ccn1 [compound 133],550,–
"CCOCc1ccc(-c2c(C)nc3c(N4CCOCC4)nccn23)cn1 [compound 5, 3-(6-Ethoxymethyl-pyridin-3-yl)-2-methyl-8-morpholin-4-yl-imidazo[1,2-a]pyrazine]",–,"ED50 [2, 3]: > 2.5 mg/kg"
"Cc1nc2c(N3CCOCC3)nccn2c1-c1ccc(CCOC(C)C)nc1 [compound 21, 3-[6-(2-Isopropoxy-ethyl)-pyridin-3-yl]-2-methyl-8-morpholin-4-yl-imidazo[1,2-a]pyrazine]",–,ED50 ([2]; read-out: APO ED50): 1.2 mg/kg
"COCCc1cc(-c2c(C)nc3c(N4CCOCC4)nccn23)ccn1 [compound 19, 3-[2-(2-Methoxy-ethyl)-pyridin-4-yl]-2-methyl-8-morpholin-4-yl-imidazo[1,2-a]pyrazine]",–,"ED50 [2, 3]: > 2.5 mg/kg"

Compound,IC50 [1] [nM],other results
"COC(Cn1cc(-c2c(C)nc3c(N4CCOCC4)nccn23)cn1)C(C)C (single isomer, unassigned) [compound 59]",74.1,–
CCc1ccc(-c2c(C3CC3)nc3c(N4CCOCC4)nccn23)cn1 [compound 66],85.1,–
"COC(C)(C)COc1ccc(-c2c(C)nc3c(-c4ccncc4)nccn23)cn1 [compound 2, 3-[6-(2-Methoxy-2-methyl-propoxy)-pyridin-3-yl]-2-methyl-8-pyridin-4-yl-imidazo[1,2-a]pyrazine]",708,–
"CCOCCc1ccc(-c2c(C)nc3c(N4CCOCC4)nccn23)cn1 [compound 20, 3-[6-(2-Ethoxy-ethyl)-pyridin-3-yl]-2-methyl-8-morpholin-4-yl-imidazo[1,2-a]pyrazine]",–,ED50 ([2]; read-out: APO ED50): 1.2 mg/kg
Cc1nc2c(N3CCOCC3)nccn2c1-c1cnn(CCOC(C)C)c1 [compound 127],457,–
Cc1nc2c(N3CCOCC3)nccn2c1-c1ccc(C(C)C)nc1 [compound 107],–,ED50 ([2]; read-out: APO ED50): 5 mg/kg
"CCc1ccc(-c2c(C)nc3c(N4CCOCC4)nccn23)cn1 [compound 26, 3-(6-Ethyl-pyridin-3-yl)-2-methyl-8-morpholin-4-yl-imidazo[1,2-a]pyrazine]",–,"ED50 [2, 3]: > 2.5 mg/kg"
COCCn1cc(-c2c(OC)nc3c(N4CCOCC4)nccn23)cn1 [compound 137],631,–
"COCCn1cc(-c2c(C)nc3c(N4CCOCC4)nc(CCC(F)(F)F)cn23)cn1 [compound 39, 3-[1-(2-Methoxy-ethyl)-1H-pyrazol-4-yl]-2-methyl-8-morpholin-4-yl-6-(3,3,3-trifluoro-propyl)-imidazo[1,2-a]pyrazine]",933,–
Cc1nc2c(-c3ccncc3)nccn2c1-c1cnn(CCN2CCOCC2)c1 [compound 126],457,–
"Cc1nc2c(N3CCOCC3)nccn2c1-c1cnn(CC2CC2(F)F)c1 (single isomer, unassigned) [compound 64]",83.2,–
COC(C)(C)Cc1ccc(-c2c(C3CC3)nc3c(N4CCOCC4)nccn23)cn1 [compound 60],75.9,–
COCCc1ccc(-c2c(C)nc3c(N4CCCC4)nccn23)cn1 [compound 124],–,"ED50 [2, 3]: > 2.5 mg/kg"
"Cc1nc2c(-c3ccncc3)nccn2c1-c1cnn(CC2CCCCO2)c1 (single isomer, unassigned) [compound 80]",112,–
Cc1nc2c(N3CCOCC3)nccn2c1-c1cnn(CCCF)c1 [compound 86],123,–
"COCCc1ccc(-c2c(C3CC3)nc3c(N4CCOCC4)nccn23)cn1 [compound 10, 2-Cyclopropyl-3-[6-(2-methoxy-ethyl)-pyridin-3-yl]-8-morpholin-4-yl-imidazo[1,2-a]pyrazine]",–,ED50 ([2]; read-out: APO ED50): 1.2 mg/kg
"COCCc1ccc(-c2c(C(C)C)nc3c(N4CCOCC4)nccn23)cn1 [compound 13, 2-Isopropyl-3-[6-(2-methoxy-ethyl)-pyridin-3-yl]-8-morpholin-4-yl-imidazo[1,2-a]pyrazine]",–,"ED50 [2, 3]: > 2.5 mg/kg"
"CO[C@H]1CCN(c2ccc(-c3c(C)nc4c(N5CCOCC5)nccn34)cn2)C1 [compound 24, (S)-3-[6-(3-Methoxy-pyrrolidin-1-yl)-pyridin-3-yl]-2-methyl-8-morpholin-4-yl-imidazo[1,2-a]pyrazine]",–,"ED50 [2, 3]: > 2.5 mg/kg"
Cc1nc2c(-c3ccncc3)nccn2c1-c1ccc(OCC(F)(F)F)nc1 [compound 129],501,–
CCOCCn1cc(-c2c(C)nc3c(N4CCOCC4)nccn23)cn1 [compound 93],135,–
Cc1nc2c(N3CCOCC3)nccn2c1-c1ccc(-c2ccc(F)cc2)nc1 [compound 139],776,–
COCCOc1ccc(-c2c(C)nc3c(-c4ccncc4)nccn23)cn1 [compound 132],537,–
COC[C@H](C)n1cc(-c2c(C)nc3c(N4CCOCC4)nccn23)cn1 [compound 75],100,–
